± gives the expanded uncertainty stated by the source.
Details: 101.33 kPa, Liquid; for mass density: Vibrating tube method; for viscosity: Concentric cylinders viscometry; for electrical conductivity: impedancemetry (AC impedance bridge)

Row | SMILES | viscosity (298.15 K) [mPa·s] | electrical conductivity (298.15 K) [S/m] | viscosity (313.15 K) [mPa·s] | electrical conductivity (313.15 K) [S/m] | viscosity (323.15 K) [mPa·s] | electrical conductivity (323.15 K) [S/m] | viscosity (333.15 K) [mPa·s] | electrical conductivity (333.15 K) [S/m] | viscosity (343.15 K) [mPa·s] | electrical conductivity (343.15 K) [S/m] | electrical conductivity (303.15 K) [S/m] | further results
1 | CCn1cc[n+](C)c1.O=S(=O)([O-])C(F)(F)F [1-ethyl-3-methylimidazolium trifluoromethanesulfonate] | 45.9 ± 1.4 | 0.913 ± 0.037 | 27.6 ± 0.9 | 1.45 ± 0.058 | 20.2 ± 0.6 | 1.74 ± 0.07 | 15.5 ± 0.5 | 2.19 ± 0.088 | 12.3 ± 0.4 | 2.6 ± 0.1 |  | mass density (293.15 K): 1382.9 ± 0.3 kg/m3; mass density (303.14 K): 1374.6 ± 0.3 kg/m3; mass density (313.14 K): 1366.3 ± 0.3 kg/m3; mass density (323.14 K): 1358 ± 0.3 kg/m3; mass density (333.14 K): 1349.8 ± 0.3 kg/m3; mass density (343.14 K): 1341.7 ± 0.3 kg/m3; mass density (353.14 K): 1333.7 ± 0.3 kg/m3
2 | CCn1cc[n+](C)c1.COS(=O)(=O)[O-] [1-ethyl-3-methylimidazolium methylsulfate] | 74.3 ± 2.3 | 0.602 ± 0.024 | 40.6 ± 1.3 | 1.02 ± 0.041 | 28.8 ± 0.9 | 1.39 ± 0.056 | 21.2 ± 0.7 | 1.84 ± 0.074 | 16.1 ± 0.5 | 2.34 ± 0.093 | 0.723 ± 0.029 | mass density (298.03 K): 1282.1 ± 0.3 kg/m3; mass density (312.67 K): 1272.2 ± 0.3 kg/m3; mass density (322.6 K): 1265.8 ± 0.3 kg/m3; mass density (332.35 K): 1259.4 ± 0.3 kg/m3; mass density (342.22 K): 1252.9 ± 0.3 kg/m3
3 | CCCCn1cc[n+](C)c1.COS(=O)(=O)[O-] [1-butyl-3-methylimidazolium methyl sulfate] | 223 ± 8 | 0.126 ± 0.005 | 101 ± 3 | 0.254 ± 0.01 | 64.3 ± 2 | 0.382 ± 0.015 | 43.6 ± 1.4 | 0.551 ± 0.022 | 31.1 ± 1 | 0.757 ± 0.03 | 0.16 ± 0.006 | mass density (298.08 K): 1210.5 ± 0.3 kg/m3; mass density (302.78 K): 1207.6 ± 0.3 kg/m3; mass density (312.49 K): 1201.4 ± 0.3 kg/m3; mass density (322.23 K): 1195 ± 0.3 kg/m3; mass density (332.16 K): 1188.7 ± 0.3 kg/m3; mass density (341.68 K): 1182.9 ± 0.3 kg/m3
4 | CCCCn1cc[n+](C)c1.O=S(=O)([O-])C(F)(F)F [1-butyl-3-methylimidazolium trifluoromethanesulfonate] | 86.6 ± 2.7 | 0.301 ± 0.012 | 45.6 ± 1.5 | 0.553 ± 0.022 | 31.6 ± 1 | 0.763 ± 0.031 | 23 ± 0.7 | 1.01 ± 0.04 | 17.2 ± 0.5 | 1.29 ± 0.052 | 0.378 ± 0.015 | mass density (297.98 K): 1294.7 ± 0.3 kg/m3; mass density (302.79 K): 1291.3 ± 0.3 kg/m3; mass density (313 K): 1283.1 ± 0.3 kg/m3; mass density (323.12 K): 1275.2 ± 0.3 kg/m3; mass density (333.12 K): 1267.4 ± 0.3 kg/m3; mass density (343.12 K): 1259.8 ± 0.3 kg/m3

Reference: the NIST ThermoML archive (doi:10.1021/je400841s)
